Data on two molecules can be found in US9624167B2, “N-(4-hydroxy-4-methyl-cyclohexyl)-4-phenyl-benzenesulfonamides and N-(4-hydroxy-4-methyl-cyclohexyl)-4-(2-pyridyl)benzenesulfonamides and their therapeutic use” (PIMCO 2664 LIMITED, priority 2013, dated 2017).

Where two headings read alike, the source gives them in different places.

One data set relates to Monocytes. Briefly: Human primary leucocyte viability: monocytes. The class given is cell-based. The conditions noted are these: 3 μM, 48 hours. Here is the method: (§1) The effects of the reference compound (ABD735) on the viability of neutrophils, monocytes, CD4+ and CD8+ T-cells and B-lymphocytes was assessed under both resting and stimulated conditions. Resting conditions were used to assess likely effects on normal cells found in human blood, and stimulated conditions were used to assess the effects of the compound under disease conditions.
(§2) Effects on cell viability were assessed using flow cytometry. Flow cytometry is a laser-based, biophysical technology employed in cell counting, cell sorting, and biomarker detection, by suspending cells in a stream of fluid and passing them by an electronic detection apparatus. It allows simultaneous multi-parametric analysis of the physical and chemical characteristics of up to thousands of particles per second. The sorting of cells using flow cytometry requires the use of specific cell markers. To quantify cell numbers, counting beads are used as an internal standard. Counting beads are a calibrated suspension of microbeads which are added to a known volume of sample so the sample volume per bead is known. This allows the absolute determination of cell number in a sample. In addition, for B- and T-lymphocytes, cell proliferation was measured using a dye known as Cell Proliferation Dye (eFluor® 450). eFluor® 450 is an organic dye which can be conjugated to cell-specific markers. It fluoresces when excited by a laser in a manner proportional to the number of cells bound by the conjugate. Its signal therefore provides an indication of the proliferation of specific cell types.
PBMCs (peripheral blood mononuclear cells) were collected from healthy donors (all male) and isolated by centrifugation on a layer of Ficoll Paque (GE Healthcare, UK). Cells were then resuspended (3×10^6 cells/mL) in RPMI supplemented with 10% FCS and antibiotics (penicillin 100 U/mL, streptomycin 100 μg/mL) and 1 mL of cell suspension was added to a 48-well plate, which was then incubated for 1 hour at 37° C./5% CO2. Subsequently, the supernatant was aspirated to remove non-adherent cells, which was followed by two washing steps to ensure removal of non-adhered cells. Adhered cells (monocytes) were then stimulated with either LPS (10 ng/mL), TNFα (10 ng/mL) or macrophage colony stimulating factor (M-CSF) (10 ng/mL) in the absence (control) or presence of reference compound (ABD735) (at 30, 10, 3, 1, or 0.3 μM) for 48 hours at 37° C./5% CO2. Subsequently, the plates were centrifuged and the monocytes washed in PBS before addition of PBS plus EDTA (10 mM) and incubation at 4° C. for 20 minutes to help detach the cells, which was facilitated by pipetting. […]
(§3) The average results (n=3) for the reference compound (ABD735) were expressed as a fold change versus the average control value. […]

For data set [1], the system named is CD8+ T-lymphocytes. Briefly: Human primary leucocyte proliferation: CD8+ T-lymphocytes. Conditions: 3 μM, 5 days. It is filed as cell-based. The procedure: as §2, with “This allows the absolute determination of cell number in a sample.” left out, “It fluoresces when excited by a laser in a manner proportional to the number of cells bound by the conjugate. Its signal therefore provides an indication of the proliferation of specific cell types.” left out
PBMCs (peripheral blood mononuclear cells) were collected from healthy donors (all female) and isolated by centrifugation on a layer of Ficoll Paque (GE Healthcare, UK). […] Following incubation, the cells were stained with either anti-human CD8 or CD4 before being analysed on a flow cytometer. […]
as §3

Data set [2] deals with CD8+ T-lymphocytes. Briefly: Human primary leucocyte viability: CD8+ T-lymphocytes. Conditions: 3 μM, 48 hours. It is filed as cell-based. Here is the method:
as §1
as §2, with “Counting beads are a calibrated suspension of microbeads which are added to a known volume of sample so the sample volume per bead is known. This allows the absolute determination of cell number in a sample.” left out, “It fluoresces when excited by a laser in a manner proportional to the number of cells bound by the conjugate. Its signal therefore provides an indication of the proliferation of specific cell types.” left out
as §3

In a further data set the test system is B-lymphocytes. Briefly: Human primary leucocyte viability: B-lymphocytes. The class given is cell-based. Conditions: 3 μM. The procedure: as §1
as §2, with “Counting beads are a calibrated suspension of microbeads which are added to a known volume of sample so the sample volume per bead is known. This allows the absolute determination of cell number in a sample.” left out, “It fluoresces when excited by a laser in a manner proportional to the number of cells bound by the conjugate. Its signal therefore provides an indication of the proliferation of specific cell types.” left out
as §3

Data set [3] in a line: Maximum Tolerated Dose, Han Wistar rats. The conditions noted are these: rat, in vivo, oral. The procedure:
The acute safety of the compounds was assessed in rats in order to enable determination of the maximum tolerated dose (MTD), an indication of a compound's safety in animals. The higher the MTD, the greater is the potential safety of the compound being tested.
At the completion of the study, the results were expressed as the maximum tolerated dose for each compound, this being the highest of each without unacceptable toxicity.
The maximum dose without unacceptable side-effects was determined to be the MTD (expressed in mg/kg).

Regarding `Cc1cc(S(=O)(=O)N[C@H]2CC[C@H](O)CC2)ccc1-c1ccc(F)cc1F` [ABD735], the “Fold change in viability” value is on record as 1.0 in the data set with Monocytes (LPS); 1.1 in the data set with Monocytes (M-CSF); 0.5 in the data set on Monocytes (TNFα); 0.7 in the data set on Monocytes (no stimulation); 0.8 in the data set with CD8+ T-lymphocytes [2] (no stimulation); 0.7 in the data set on CD8+ T-lymphocytes [2] (phytohaemagglutinin). Besides, the “Fold change in viability” value is given as 1.1 in the data set with B-lymphocytes (SAC/IL-2, 48 hours) and 0.9 in the data set with B-lymphocytes (no stimulation, 48 hours). Besides, the results for the “Fold change in proliferation” value with CD8+ T-lymphocytes [1] (no stimulation) and with CD8+ T-lymphocytes [1] (phytohaemagglutinin) were 0.7 and 0.3, respectively.

As to `C[C@]1(O)CC[C@H](NS(=O)(=O)c2ccc(-c3ccc(Cl)cc3C#N)cc2)CC1` [HMC-C-01-A, 4′-Chloro-2′-cyano-N-((1r,4r)-4-hydroxy-4-methylcyclohexyl)biphenyl-4-sulfonamide], the MTD in data set [3] (female Han Wistar rats, read-out: Maximum tolerated dose, Females) is > 500 mg/kg; in data set [3] (male Han Wistar rats, read-out: Maximum tolerated dose, Males) it was > 500 mg/kg.
